In EP0545911B1, “Lanthionine-containing bacteriocin compositions for use as bactericides” (APPLIED MICROBIOLOGY, INC., priority 1988, dated 1996):

How the values were obtained:
Assay type in all cases: cell-based
Streptococcus agalactiae = assay: Bactericidal activity (percent bacterial survival, CFU count) in milk at 37°C; details: for % survival at 2hr: Monolaurin 0 %
Experimental: (§1) All tests in the following examples were performed at 37°C. The efficacy of the enhanced broad range bactericides was determined by assaying bactericidal activity as measured by the percent bacterial survival after treatment with the bactericide. Generally, after incubation of a 10^7 cell per ml suspension of target species with the novel bactericide for specified lengths of time, bacteria were collected by centrifugation for 2 minutes. The bacterial pellet was washed free of the bactericide with a rescue buffer, termed herein Phage buffer (50mM Tris-HCl buffer pH 7.8, 1mM MgSO4, 4mM CaCl2, 0.1 M NaCl, and 0.1% gelatin), resuspended and serially diluted into Phage buffer, and […] of the suspended bacteria were spread on nutrient agar plates. Surviving bacteria were determined by scoring colony forming units (CFU) after incubation for 24-48 hours at 37°C. An effective bactericide according to this invention is one which allows less than 0.1% of the initial viable count of the bacteria to survive.
Thus, when the application of nisin is limited by its available activity, a bactericide comprising nisin with a surfactant can be expected to be more useful.

Listeria monocytogenes [1] = details: monooleate by itself; milk
Experimental: as §1

Listeria monocytogenes [2] = assay: Bactericidal activity (percent bacterial survival, CFU count) in milk at 37°C
Experimental: as §1

Compound: CCCCCCCCCCCC(=O)OCC(O)CO (stereo not drawn) [Monolaurin, monolaurin]
- viability at 0.01 % (Streptococcus agalactiae; Streptococcus agalactiae, 2 h, Nisin 0 µg/ml, Monolaurin 0.01 %, 37°C, initial viable counts 6.0 x 10^7 cfu/ml): 100%
- viability at 0.1 % (Streptococcus agalactiae; Streptococcus agalactiae, 2 h, Nisin 0 µg/ml, Monolaurin 0.1 %, 37°C, initial viable counts 6.0 x 10^7 cfu/ml): 4.5%
- bactericidal activity towards Streptococcus agalactiae (in words) (Streptococcus agalactiae; monolaurin alone at concentrations up to 0.1%): little significant bactericidal activity

Compound: glyceride monooleate
- bactericidal activity towards L. monocytogenes (in words) (Listeria monocytogenes [1]): no bactericidal activity

Compound: Nisin (ITSISLCTPGCKTGALMGCNMKTATCHCSIHVSK; not fully specified; Lantibiotic nisin-A; UniProt P13068 24-57, looked up) [polypeptide with antimicrobial properties produced by strains of Streptococcus lactis; lanthionine-containing peptide bacteriocin, known food preservative]
- % survival at 2hr (Streptococcus agalactiae; Nisin 0.02 µg/ml, 37°C, initial viable counts 6.0 x 10^7 cfu/ml): 100%
- % survival at 2hr (Streptococcus agalactiae; Nisin 0.2 µg/ml, 37°C, initial viable counts 6.0 x 10^7 cfu/ml): 2.2%
- bactericidal activity in milk (in words) (Streptococcus agalactiae; nisin alone at concentrations up to 0.2 µg.ml): does not exhibit significant bactericidal activity
- % survival at 2hr (Listeria monocytogenes [2]; Nisin 100 µg/ml, Monooleate 0 %, milk, 37°C, initial viable count 5.0 x 10^7 cfu/ml): 0.56%
- available nisin activity towards L. monocytogenes (in words) (Listeria monocytogenes [2]; nisin alone, complex medium like milk): restricted
